Usually IC50 stands for the point on the concentration scale where inhibition reaches its midpoint.

Results on four molecules are retold here after ChEMBL document CHEMBL1139192, “Novel bis(indolyl)maleimide pyridinophanes that are potent, selective inhibitors of glycogen synthase kinase-3” (Bioorg Med Chem Lett, 2007).

Each structure is given as a SMILES string.

For assay [1], the target named is Tyrosine-protein kinase ZAP-70 (Homo sapiens) (UniProt P43403). As to the kind of experiment: Residual activity of human ZAP70 kinase at 1 uM relative to control.
Tyrosine-protein kinase ZAP-70 (Homo sapiens), sequence (P43403 whole entry, looked up): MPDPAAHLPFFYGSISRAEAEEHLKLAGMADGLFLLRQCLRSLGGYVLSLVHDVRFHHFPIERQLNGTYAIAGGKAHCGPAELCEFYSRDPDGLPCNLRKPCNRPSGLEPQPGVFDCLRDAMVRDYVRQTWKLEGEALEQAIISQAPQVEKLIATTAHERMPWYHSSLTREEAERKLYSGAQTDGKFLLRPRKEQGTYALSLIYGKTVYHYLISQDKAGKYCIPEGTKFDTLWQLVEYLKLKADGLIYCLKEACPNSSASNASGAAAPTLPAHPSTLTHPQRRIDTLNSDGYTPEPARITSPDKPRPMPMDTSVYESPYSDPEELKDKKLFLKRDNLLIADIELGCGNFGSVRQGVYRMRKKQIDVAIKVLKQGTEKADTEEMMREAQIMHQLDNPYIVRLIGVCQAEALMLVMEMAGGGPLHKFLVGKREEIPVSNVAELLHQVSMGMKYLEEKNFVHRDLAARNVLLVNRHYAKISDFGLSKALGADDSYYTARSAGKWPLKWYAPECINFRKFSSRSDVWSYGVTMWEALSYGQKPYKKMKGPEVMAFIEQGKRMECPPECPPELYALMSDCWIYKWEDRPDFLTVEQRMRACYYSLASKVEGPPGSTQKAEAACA
Assay [2] has as its target Mitogen-activated protein kinase 11 (Homo sapiens) (UniProt Q15759). As to the kind of experiment: Inhibition of human SAPK2b at 1 uM relative to control; values are per cent of control.
In assay [3] the target is Platelet-derived growth factor receptor beta (Homo sapiens) (UniProt P09619). As to the kind of experiment: Inhibition of human PDGFRbeta at 1 uM relative to control; values are per cent of control.
The species entered for assay [4] is Homo sapiens. As to the kind of experiment: Residual activity of human CDK6/Cyclin D at 1 uM relative to control.
Assay [5] deals with T1, Protein kinase C epsilon type (Homo sapiens) (UniProt Q02156).
T1 sequence (whole entry): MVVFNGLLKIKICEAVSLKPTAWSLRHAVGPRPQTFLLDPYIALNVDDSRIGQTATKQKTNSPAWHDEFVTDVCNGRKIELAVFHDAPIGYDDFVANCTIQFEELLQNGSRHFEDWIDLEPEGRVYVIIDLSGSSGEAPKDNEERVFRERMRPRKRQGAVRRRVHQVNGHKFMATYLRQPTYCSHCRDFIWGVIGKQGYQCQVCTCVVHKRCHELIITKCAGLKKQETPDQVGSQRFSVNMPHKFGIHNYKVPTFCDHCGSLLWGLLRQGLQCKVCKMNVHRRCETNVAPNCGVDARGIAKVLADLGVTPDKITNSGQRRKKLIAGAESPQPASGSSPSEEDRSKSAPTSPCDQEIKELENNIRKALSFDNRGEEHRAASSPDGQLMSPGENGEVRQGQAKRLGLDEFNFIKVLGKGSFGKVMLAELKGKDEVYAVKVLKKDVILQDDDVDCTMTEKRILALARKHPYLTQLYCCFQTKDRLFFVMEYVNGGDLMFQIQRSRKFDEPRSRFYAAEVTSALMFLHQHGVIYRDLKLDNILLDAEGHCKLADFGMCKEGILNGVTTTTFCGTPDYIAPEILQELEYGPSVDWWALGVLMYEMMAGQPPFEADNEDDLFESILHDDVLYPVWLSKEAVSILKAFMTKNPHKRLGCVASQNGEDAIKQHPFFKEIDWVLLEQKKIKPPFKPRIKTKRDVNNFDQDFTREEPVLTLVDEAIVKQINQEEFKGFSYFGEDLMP
As to the kind of experiment: Residual activity of human PKCepsilon at 1 uM relative to control.

Assay [6] deals with Protein kinase C beta type (Homo sapiens, UniProt P05771). Description: Inhibition of human recombinant PKCbeta2.
Protein kinase C beta type, sequence (P05771 whole entry): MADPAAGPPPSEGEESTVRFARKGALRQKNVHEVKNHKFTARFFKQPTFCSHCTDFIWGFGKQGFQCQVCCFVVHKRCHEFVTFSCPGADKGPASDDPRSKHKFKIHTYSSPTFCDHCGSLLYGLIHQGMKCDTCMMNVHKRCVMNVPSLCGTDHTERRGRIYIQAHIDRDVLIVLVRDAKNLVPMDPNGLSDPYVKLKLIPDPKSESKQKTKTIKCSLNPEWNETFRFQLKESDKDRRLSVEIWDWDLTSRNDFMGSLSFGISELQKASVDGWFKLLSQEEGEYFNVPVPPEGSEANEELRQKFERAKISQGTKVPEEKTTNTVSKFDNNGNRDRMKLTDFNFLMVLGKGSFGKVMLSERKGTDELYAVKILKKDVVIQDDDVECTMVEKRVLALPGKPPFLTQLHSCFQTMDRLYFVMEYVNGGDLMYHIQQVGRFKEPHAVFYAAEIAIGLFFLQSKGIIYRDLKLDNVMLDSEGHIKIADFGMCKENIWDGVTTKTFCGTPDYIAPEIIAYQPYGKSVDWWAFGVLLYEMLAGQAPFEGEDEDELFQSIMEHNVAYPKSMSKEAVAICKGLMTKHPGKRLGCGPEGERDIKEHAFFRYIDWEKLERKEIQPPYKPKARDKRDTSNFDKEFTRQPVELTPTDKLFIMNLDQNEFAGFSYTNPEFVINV
In assay [7] the target is T2, Serine/threonine-protein kinase D1 (Homo sapiens) (UniProt Q15139).
T2 sequence (whole entry): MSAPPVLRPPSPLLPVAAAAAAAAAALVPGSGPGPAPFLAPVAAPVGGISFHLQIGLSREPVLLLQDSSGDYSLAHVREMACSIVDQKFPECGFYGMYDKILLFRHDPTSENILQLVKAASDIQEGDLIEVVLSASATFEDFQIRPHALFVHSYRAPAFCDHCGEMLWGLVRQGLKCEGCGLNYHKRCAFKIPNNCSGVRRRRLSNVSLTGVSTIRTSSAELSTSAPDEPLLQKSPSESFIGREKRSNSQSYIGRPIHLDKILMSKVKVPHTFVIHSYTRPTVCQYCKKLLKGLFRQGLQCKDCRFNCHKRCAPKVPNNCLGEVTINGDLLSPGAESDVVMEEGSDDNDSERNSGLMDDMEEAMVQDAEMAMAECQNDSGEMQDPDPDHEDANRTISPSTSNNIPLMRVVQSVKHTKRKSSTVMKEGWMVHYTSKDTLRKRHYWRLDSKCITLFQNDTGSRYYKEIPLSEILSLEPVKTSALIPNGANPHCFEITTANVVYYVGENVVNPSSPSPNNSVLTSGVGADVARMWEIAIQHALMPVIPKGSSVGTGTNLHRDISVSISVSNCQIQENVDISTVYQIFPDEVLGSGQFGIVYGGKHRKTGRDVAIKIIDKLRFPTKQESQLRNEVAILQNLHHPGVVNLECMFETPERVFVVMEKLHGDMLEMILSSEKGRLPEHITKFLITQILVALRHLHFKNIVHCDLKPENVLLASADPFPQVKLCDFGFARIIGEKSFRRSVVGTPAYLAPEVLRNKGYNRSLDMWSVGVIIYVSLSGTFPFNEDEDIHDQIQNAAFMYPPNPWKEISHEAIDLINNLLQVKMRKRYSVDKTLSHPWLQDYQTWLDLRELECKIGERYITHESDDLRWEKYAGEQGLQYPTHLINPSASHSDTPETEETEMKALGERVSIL
Description: Residual activity of human PKCmu at 1 uM relative to control.

The species named for assay [8] is Homo sapiens. Description: Residual activity of human CDK1/Cyclin B at 1 uM relative to control.
The target of assay [9] is Ribosomal protein S6 kinase beta-1 (Homo sapiens) (UniProt P23443). As to the kind of experiment: Inhibition of human p70S6K at 1 uM relative to control; values are per cent of control.
Ribosomal protein S6 kinase beta-1 (Homo sapiens), sequence (P23443 whole entry, looked up): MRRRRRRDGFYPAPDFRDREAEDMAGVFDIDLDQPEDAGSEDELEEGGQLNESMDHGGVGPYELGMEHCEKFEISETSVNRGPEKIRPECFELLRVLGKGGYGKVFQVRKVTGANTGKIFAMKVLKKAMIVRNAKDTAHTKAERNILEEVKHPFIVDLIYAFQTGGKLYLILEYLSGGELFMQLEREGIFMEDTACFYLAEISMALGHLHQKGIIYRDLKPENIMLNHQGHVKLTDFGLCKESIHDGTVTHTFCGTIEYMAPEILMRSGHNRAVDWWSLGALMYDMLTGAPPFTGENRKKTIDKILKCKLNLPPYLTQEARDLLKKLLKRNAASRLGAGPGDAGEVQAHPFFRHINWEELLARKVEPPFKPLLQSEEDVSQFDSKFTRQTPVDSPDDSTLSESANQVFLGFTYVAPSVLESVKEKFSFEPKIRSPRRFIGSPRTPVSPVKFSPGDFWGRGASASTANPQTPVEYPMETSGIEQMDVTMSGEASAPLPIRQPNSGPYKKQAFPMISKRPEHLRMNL
For the next assay, the species on record is Rattus norvegicus. Description: Inhibition of rat AMPK at 1 uM relative to control; values are per cent of control.
The target of assay [10] is Receptor-type tyrosine-protein kinase FLT3 (Homo sapiens) (UniProt P36888). As to the kind of experiment: Residual activity of human Flt3 at 1 uM relative to control.
Assay [11] concerns the target T3, Dual specificity mitogen-activated protein kinase kinase 4 (Mus musculus) (UniProt P47809).
T3 sequence (whole entry): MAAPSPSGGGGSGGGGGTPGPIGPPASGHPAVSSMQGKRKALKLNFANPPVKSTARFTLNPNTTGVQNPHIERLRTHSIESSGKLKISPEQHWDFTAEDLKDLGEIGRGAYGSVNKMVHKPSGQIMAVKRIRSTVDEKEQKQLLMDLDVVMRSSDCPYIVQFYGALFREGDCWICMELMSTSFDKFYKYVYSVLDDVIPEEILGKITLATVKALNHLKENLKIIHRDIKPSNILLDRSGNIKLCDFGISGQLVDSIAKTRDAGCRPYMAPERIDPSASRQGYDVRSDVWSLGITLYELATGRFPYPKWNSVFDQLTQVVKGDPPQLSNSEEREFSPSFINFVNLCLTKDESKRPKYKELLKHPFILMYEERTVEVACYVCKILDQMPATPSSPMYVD
As to the kind of experiment: Inhibition of mouse MKK4 Met at 1 uM relative to control; values are per cent of control.

The target of assay [12] is Tyrosine-protein kinase ABL2 (Mus musculus) (UniProt Q4JIM5). Description: Residual activity of mouse Arg at 1 uM relative to control.
Tyrosine-protein kinase ABL2 (Mus musculus), sequence (Q4JIM5 whole entry): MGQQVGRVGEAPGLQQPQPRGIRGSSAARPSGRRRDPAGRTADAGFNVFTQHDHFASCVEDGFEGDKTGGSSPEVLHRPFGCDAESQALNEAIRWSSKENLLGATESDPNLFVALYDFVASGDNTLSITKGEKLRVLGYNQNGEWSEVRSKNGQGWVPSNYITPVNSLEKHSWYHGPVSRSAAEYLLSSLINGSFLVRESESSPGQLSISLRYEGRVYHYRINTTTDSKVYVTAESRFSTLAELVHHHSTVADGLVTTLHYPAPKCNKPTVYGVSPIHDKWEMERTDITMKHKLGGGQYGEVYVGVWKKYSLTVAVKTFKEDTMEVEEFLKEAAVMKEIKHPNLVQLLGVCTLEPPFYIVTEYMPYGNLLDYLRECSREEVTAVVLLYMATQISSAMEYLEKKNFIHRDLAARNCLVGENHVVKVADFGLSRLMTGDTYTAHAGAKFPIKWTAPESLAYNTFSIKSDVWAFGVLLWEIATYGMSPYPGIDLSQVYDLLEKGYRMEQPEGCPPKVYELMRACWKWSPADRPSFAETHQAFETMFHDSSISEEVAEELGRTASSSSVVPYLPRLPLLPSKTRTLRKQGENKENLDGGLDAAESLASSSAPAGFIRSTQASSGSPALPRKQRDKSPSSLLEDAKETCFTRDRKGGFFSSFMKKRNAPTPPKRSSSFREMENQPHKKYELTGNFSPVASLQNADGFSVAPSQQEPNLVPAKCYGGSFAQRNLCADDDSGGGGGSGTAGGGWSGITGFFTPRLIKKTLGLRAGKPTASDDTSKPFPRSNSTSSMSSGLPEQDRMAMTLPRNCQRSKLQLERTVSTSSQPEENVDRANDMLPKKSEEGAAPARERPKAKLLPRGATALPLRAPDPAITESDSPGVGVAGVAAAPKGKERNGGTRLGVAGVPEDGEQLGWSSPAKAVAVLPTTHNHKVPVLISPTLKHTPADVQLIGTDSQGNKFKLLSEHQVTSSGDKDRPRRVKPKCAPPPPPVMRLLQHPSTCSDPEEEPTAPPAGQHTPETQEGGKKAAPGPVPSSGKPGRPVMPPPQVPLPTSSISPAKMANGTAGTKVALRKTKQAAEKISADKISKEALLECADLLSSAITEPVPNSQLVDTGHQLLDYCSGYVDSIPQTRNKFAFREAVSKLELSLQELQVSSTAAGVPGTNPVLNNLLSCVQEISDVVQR
The target in assay [13] is Insulin-like growth factor 1 receptor (Homo sapiens) (UniProt P08069). As to the kind of experiment: Residual activity of human IGF1R at 1 uM relative to control.
Insulin-like growth factor 1 receptor (Homo sapiens), sequence (P08069 31-736 limits assumed): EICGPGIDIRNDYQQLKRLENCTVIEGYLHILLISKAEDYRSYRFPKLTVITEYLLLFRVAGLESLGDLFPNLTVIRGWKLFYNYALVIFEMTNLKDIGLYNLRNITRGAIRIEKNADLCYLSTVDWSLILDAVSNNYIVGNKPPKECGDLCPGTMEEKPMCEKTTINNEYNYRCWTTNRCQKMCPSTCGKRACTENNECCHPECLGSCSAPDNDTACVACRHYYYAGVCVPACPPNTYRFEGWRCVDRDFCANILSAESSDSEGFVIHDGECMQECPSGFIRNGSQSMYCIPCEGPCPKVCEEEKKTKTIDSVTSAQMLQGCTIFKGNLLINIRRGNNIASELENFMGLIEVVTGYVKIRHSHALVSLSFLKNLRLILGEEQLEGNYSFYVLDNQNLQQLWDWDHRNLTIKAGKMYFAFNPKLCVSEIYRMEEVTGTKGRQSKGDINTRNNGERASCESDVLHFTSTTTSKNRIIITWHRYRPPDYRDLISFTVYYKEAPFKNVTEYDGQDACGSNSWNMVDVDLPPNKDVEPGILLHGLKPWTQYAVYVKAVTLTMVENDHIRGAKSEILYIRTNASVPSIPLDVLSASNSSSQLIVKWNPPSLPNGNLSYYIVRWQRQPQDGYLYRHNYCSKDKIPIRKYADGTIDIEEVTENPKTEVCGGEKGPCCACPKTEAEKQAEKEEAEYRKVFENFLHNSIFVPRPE
Insulin-like growth factor 1 receptor (Homo sapiens), sequence (P08069 741-1367 limits assumed): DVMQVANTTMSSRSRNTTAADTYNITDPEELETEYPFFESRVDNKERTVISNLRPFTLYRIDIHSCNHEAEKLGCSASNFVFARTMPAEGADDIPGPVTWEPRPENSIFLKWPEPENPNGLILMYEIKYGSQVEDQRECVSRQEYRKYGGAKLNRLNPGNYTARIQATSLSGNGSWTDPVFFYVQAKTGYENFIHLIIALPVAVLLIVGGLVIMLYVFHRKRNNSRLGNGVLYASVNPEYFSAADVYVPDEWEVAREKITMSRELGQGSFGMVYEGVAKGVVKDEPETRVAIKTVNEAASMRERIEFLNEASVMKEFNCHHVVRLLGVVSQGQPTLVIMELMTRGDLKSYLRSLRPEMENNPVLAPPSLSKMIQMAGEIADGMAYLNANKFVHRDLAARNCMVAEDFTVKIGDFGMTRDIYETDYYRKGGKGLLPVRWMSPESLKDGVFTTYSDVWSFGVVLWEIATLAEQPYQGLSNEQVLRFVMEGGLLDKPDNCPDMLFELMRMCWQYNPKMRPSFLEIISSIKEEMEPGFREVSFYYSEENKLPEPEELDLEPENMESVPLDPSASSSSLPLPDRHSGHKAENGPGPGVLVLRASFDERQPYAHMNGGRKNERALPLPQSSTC

Mitogen-activated protein kinase 11 (Homo sapiens), sequence (Q15759 whole entry): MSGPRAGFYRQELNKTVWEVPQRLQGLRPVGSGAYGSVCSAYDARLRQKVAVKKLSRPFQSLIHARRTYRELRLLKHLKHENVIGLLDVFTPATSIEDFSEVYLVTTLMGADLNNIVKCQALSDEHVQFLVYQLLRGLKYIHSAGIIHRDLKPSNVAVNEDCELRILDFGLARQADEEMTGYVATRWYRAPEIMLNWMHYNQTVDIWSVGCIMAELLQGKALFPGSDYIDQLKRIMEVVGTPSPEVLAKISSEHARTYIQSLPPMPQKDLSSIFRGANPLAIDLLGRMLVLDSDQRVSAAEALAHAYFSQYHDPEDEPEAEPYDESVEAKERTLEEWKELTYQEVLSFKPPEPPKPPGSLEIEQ

Take `CN(C)c1nc2ccc1CCCn1cc(c3ccccc31)C1=C(C(=O)NC1=O)c1cn(c3ccccc13)CC2`: the residual activity in assay [1] was determined as 113%; in assay [2], 104%; in [3], 147%; in the assay listed under Homo sapiens [4], 86%; in assay [5] it was 72%; in assay [7] it was 110%. Further, the residual activity in the assay listed under Homo sapiens [8] came out at 78%; in assay [9], 98%; in the assay listed under Rattus norvegicus, 101%; in assay [10], 86%; in assay [11], 130%; in [12], 113%. Further, in [13], the residual activity was 84%. Moreover, in assay [6], the IC50 came to 1.4 µM.

Take `O=C1NC(=O)C2=C1c1cn(c3ccccc13)CCCc1cc(nc(N3CCCC3)c1)CCCn1cc2c2ccccc21`: the residual activity came to 115% in assay [1]; 114% in assay [2]; 103% in [3]; 82% in the assay filed under Homo sapiens [4]; 93% in [5]; 118% in assay [7]. Further, the residual activity came to 80% in the assay filed under Homo sapiens [8]; 95% in assay [9]; 105% in the assay filed under Rattus norvegicus; 77% in assay [10]; 119% in assay [11]; 121% in [12]. Besides, the residual activity in assay [13] was determined as 42%. For the same molecule, in [6], the IC50 stood at 1.2 µM.

`CN(C)c1cc2cc(n1)CCCn1cc(c3ccccc31)C1=C(C(=O)NC1=O)c1cn(c3ccccc13)CCC2`: the residual activity came out at 103% in assay [1]; 119% in [2]; 101% in assay [3]; 74% in the assay filed under Homo sapiens [4]; 83% in [5]; 118% in [7]. The residual activity in the assay listed under Homo sapiens [8] worked out at 98%; in [9], 91%; in the assay listed under Rattus norvegicus, 101%; in assay [10] it was 71%; in assay [11], 119%; in assay [12], 129%. In addition, in [13], the residual activity worked out at 37%. Further, the IC50 in assay [6] was 2.4 µM.

With `O=C1NC(=O)C2=C1c1cn(c3ccccc13)CCCc1ccc(c(N3CCCC3)n1)CCCn1cc2c2ccccc21`, the residual activity was determined as 121% in assay [1]; 99% in [2]; 105% in assay [3]; 92% in the assay filed under Homo sapiens [4]; 97% in [5]; 113% in assay [7]. For the same molecule, the residual activity in [9] was 84%; in the assay filed under Rattus norvegicus, 99%; in assay [10] it was 85%; in assay [11], 113%; in assay [12], 130%; in assay [13], 106%. Moreover, in [6], the IC50 amounted to 2.2 µM.
